pEC50: −log10 of the molar value. Counter-ions that a name gives are not always drawn.
Tests used:
[1] = target: human activated kallikrein enzyme (Homo sapiens, UniProt P03952); assay: Inhibition of activated plasma kallikrein, fluorogenic peptide substrate (PFR-AMC) assay, 500 pM enzyme format; type: biochemical; conditions: 500 pM activated kallikrein, 300 uM PFR-AMC, 30 min preincubation, 10 min reaction, room temperature; read-out: Primary Dose Response Assay: Average EC50
Description: Compounds were evaluated for inhibition of the human activated kallikrein enzyme in two formats of an assay employing a fluorogenic peptide substrate. In one assay format, the concentrations of reagents were as follows: 20 mM Tris pH 7.5, 1 mM EDTA, 150 mM sodium chloride, 0.1% PEG-400, 0.1% Triton X-100, 500 pM activated kallikrein enzyme, 300 uM Pro-Phe-Arg-7-amido-4-methylcoumarin (PFR-AMC) substrate. Prior to reaction initiation with substrate, enzyme and inhibitors were preincubated for 30 min at room temperature. After initiation with substrate, reactions were incubated for 10 min at room temperature and fluorescence emission at 460 nm from 380 nm excitation measured with a microplate reader. In another assay format, the concentrations of reagents were as follows: 20 mM Tris pH 7.5, 1 mM EDTA, 150 mM sodium chloride, 0.1% PEG-400, 0.1% Triton X-100, 5 pM activated kallikrein enzyme, 300 uM PFR-AMC substrate. Prior to reaction initiation with substrate, enzyme and inhibitors were preincubated for 30 min at room temperature. After initiation with substrate, reactions were incubated for 18 hr at room temperature and fluorescence emission at 460 nm from 380 nm excitation measured with a microplate reader.
Table 6 provides the results of the assay in the format with 500 pM activated kallikrein assay.

plasma kallikrein = target: T1, plasma kallikrein (Homo sapiens, UniProt P03952); assay: Neat human plasma assay: contact pathway-activated (FXIIa) plasma, PFR-AMC substrate; type: biochemical; conditions: citrated human plasma (78% final), 10 nM human FXIIa, 100 μM PFR-AMC, room temperature
T1 construct: from tissue; host or cells: sodium citrate collected human plasma (78% final)
Description: To analyze inhibition of plasma kallikrein in an ex vivo setting, the potency of compounds was measure in contact pathway-activated plasma assays. In a fluorogenic peptide substrate assay, test compounds dissolved in DMSO were added to sodium citrate collected human or rat plasma in a 96-well microplate. Alternatively, citrated plasma was collected from rats administered the compounds orally or by IV. 10 nM of human FXIIa (Enzyme Research Laboratories) diluted in pKal buffer (20 mM Tris-HCl, pH 7.5, 150 mM NaCl, 1 mM EDTA, 0.1% PEG-8000, and 0.1% Triton X-100) was added to the plasma, followed by the 100 μM of the profluorescent, synthetic plasma kallikrein substrate PFR-AMC (also diluted in pKal buffer). Final plasma concentration in the reaction was 78%. Fluorescence was immediately monitored by excitation/emission wavelengths of 360 nm/480 nm respectively over a period of 5 minutes in a microplate reader. The resulting linear increase in fluorescence emission (reflecting pKal proteolysis of PFR-AMC substrate) was fit to extract a proteolytic rate (fluorescent units over time), and this rate was subsequently plotted against compound inhibitor concentration. Resulting plots were fit to a standard 4-parameter IC50/IC90 equation to determine min/max values, IC50/90, and slope. All experimental steps were performed at room temperature.

T1 sequence (P03952 391-638 limits assumed): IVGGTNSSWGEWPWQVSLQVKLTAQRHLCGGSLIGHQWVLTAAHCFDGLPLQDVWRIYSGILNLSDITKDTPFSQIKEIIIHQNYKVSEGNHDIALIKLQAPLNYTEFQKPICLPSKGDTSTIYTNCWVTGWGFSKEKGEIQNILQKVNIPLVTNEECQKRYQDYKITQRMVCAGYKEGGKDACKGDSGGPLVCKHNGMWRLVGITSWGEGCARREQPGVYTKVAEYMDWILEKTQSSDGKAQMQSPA
T1 sequence (P03952 20-390 partner limits assumed): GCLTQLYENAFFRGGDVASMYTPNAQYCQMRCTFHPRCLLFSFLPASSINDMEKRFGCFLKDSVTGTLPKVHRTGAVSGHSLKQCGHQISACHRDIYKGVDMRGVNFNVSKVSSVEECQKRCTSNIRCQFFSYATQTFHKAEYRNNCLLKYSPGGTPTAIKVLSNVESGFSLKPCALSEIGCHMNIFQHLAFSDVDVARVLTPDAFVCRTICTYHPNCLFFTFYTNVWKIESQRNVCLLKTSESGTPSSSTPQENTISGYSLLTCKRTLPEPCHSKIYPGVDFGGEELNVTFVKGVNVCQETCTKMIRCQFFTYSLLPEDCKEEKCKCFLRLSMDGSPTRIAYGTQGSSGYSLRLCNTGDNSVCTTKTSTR
Sequence of human activated kallikrein enzyme (P03952 391-638 limits assumed): as the sequence (P03952 391-638 limits assumed) above
Sequence of human activated kallikrein enzyme (P03952 20-390 partner limits assumed): as the sequence (P03952 20-390 partner limits assumed) above

pEC50 [1] | IC90 (plasma kallikrein) [nM] | Structure (SMILES)
≥ 9.00 | 400 to 1500 | Cc1ccnc([C@H]2C[C@@H]2c2cc(N(C)C)c3ccc(NCc4cn5cc(C6CC6)ccc5n4)cc3n2)n1 (racemic) [Example 1, rac-N^7-((6-cyclopropylimidazo[1,2-a]pyridin-2-yl)methyl)-N^4,N^4-dimethyl-2-((1S*,2S*)-2-(4-methylpyrimidin-2-yl)cyclopropyl)quinoline-4,7-diamine]
8.00 to 9.00 | 1500 to 10000 | CN1C(=O)CN(c2cc(C3CC3)cn3cc(CNc4ccc5c(=O)cc([C@H]6C[C@@H]6c6cccc(Cl)c6)[nH]c5c4)nc23)C1=O (racemic) [Example 5, rac-1-(2-(((2-((1S*,2S*)-2-(3-chlorophenyl)cyclopropyl)-4-oxo-1,4-dihydroquinolin-7-yl)amino)methyl)-6-cyclopropylimidazo[1,2-a]pyridin-8-yl)-3-methylimidazolidine-2,4-dione]
≥ 9.00 | 400 to 1500 | Cc1ccnc([C@H]2C[C@@H]2c2nc3cc(NCc4cn5cc(C6CC6)cc(N6CC(=O)N(C)C6=O)c5n4)ncc3c(=O)[nH]2)n1 (racemic) [Example 7, rac-1-(6-cyclopropyl-2-(((2-((1S*,2S*)-2-(4-methylpyrimidin-2-yl)cyclopropyl)-4-oxo-3,4-dihydropyrido[4,3-d]pyrimidin-7-yl)amino)methyl)imidazo[1,2-a]pyridin-8-yl)-3-methylimidazolidine-2,4-dione]
≥ 9.00 | 1500 to 10000 | Cc1ccnc([C@H]2C[C@@H]2c2nc(=O)c3ccc(NCc4cn5cc(C6CC6)cc(N6CC(=O)N(C)C6=O)c5n4)cc3[nH]2)n1 (racemic) [Example 8, rac-1-(6-cyclopropyl-2-(((2-((1S*,2S*)-2-(4-methylpyrimidin-2-yl)cyclopropyl)-4-oxo-1,4-dihydroquinazolin-7-yl)amino)methyl)imidazo[1,2-a]pyridin-8-yl)-3-methylimidazolidine-2,4-dione]
≥ 9.00 | 1500 to 10000 | Cc1ccnc([C@H]2C[C@@H]2c2nc3cc(NCc4cn5cc(C6CC6)cc(N6CC(=O)N(C)C6=O)c5n4)cnc3c(=O)[nH]2)n1 (racemic) [Example 9, rac-1-(6-cyclopropyl-2-(((2-((1S*,2S*)-2-(4-methylpyrimidin-2-yl)cyclopropyl)-4-oxo-3,4-dihydropyrido[3,2-d]pyrimidin-7-yl)amino)methyl)imidazo[1,2-a]pyridin-8-yl)-3-methylimidazolidine-2,4-dione]
≥ 9.00 | ≤ 400 | Cc1ccnc([C@H]2C[C@@H]2c2cc(=O)c3cnc(NCc4cn5cc(C6CC6)cc(N6CC(=O)N(C)C6=O)c5n4)cc3[nH]2)n1 (racemic) [Example 10, rac-1-(6-cyclopropyl-2-(((2-((1S*,2S*)-2-(4-methylpyrimidin-2-yl)cyclopropyl)-4-oxo-1,4-dihydro-1,6-naphthyridin-7-yl)amino)methyl)imidazo[1,2-a]pyridin-8-yl)-3-methylimidazolidine-2,4-dione]
≥ 9.00 | 400 to 1500 | Cc1ccnc([C@H]2C[C@@H]2c2cc(=O)c3ccc(NCc4cn5cc(C6CC6)cc(N6CC(=O)N(C)C6=O)c5n4)cc3[nH]2)n1 (racemic) [Example 11, rac-1-(6-cyclopropyl-2-(((2-((1S*,2S*)-2-(4-methylpyrimidin-2-yl)cyclopropyl)-4-oxo-1,4-dihydroquinolin-7-yl)amino)methyl)imidazo[1,2-a]pyridin-8-yl)-3-methylimidazolidine-2,4-dione]
8.00 to 9.00 | 1500 to 10000 | Cc1ccnc([C@H]2C[C@@H]2c2ccc3ncc(NCc4cn5cc(C6CC6)cc(N6CC(=O)N(C)C6=O)c5n4)cc3n2)n1 (racemic) [Example 14, rac-1-(6-cyclopropyl-2-(((6-((1S*,2S*)-2-(4-methylpyrimidin-2-yl)cyclopropyl)-1,5-naphthyridin-3-yl)amino)methyl)imidazo[1,2-a]pyridin-8-yl)-3-methylimidazolidine-2,4-dione]
8.00 to 9.00 | 1500 to 10000 | Cc1ccnc([C@H]2C[C@@H]2c2ccc3cnc(NCc4cn5cc(C6CC6)cc(N6CC(=O)N(C)C6=O)c5n4)cc3n2)n1 (racemic) [Example 15, rac-1-(6-cyclopropyl-2-(((2-((1S*,2S*)-2-(4-methylpyrimidin-2-yl)cyclopropyl)-1,6-naphthyridin-7-yl)amino)methyl)imidazo[1,2-a]pyridin-8-yl)-3-methylimidazolidine-2,4-dione formic acid salt]
8.00 to 9.00 | 10000 to 22000 | COc1cc([C@H]2C[C@@H]2c2nccc(C)n2)nc2cc(NCc3cn4cc(C5CC5)ccc4n3)ccc12 (racemic) [Example 20, rac-N-((6-cyclopropylimidazo[1,2-a]pyridin-2-yl)methyl)-4-methoxy-2-((1S*,2S*)-2-(4-methylpyrimidin-2-yl)cyclopropyl)quinolin-7-amine]
≥ 9.00 | 1500 to 10000 | COc1cc([C@H]2C[C@@H]2c2nccc(C)n2)nc2cc(NCc3cn4cc(C5CC5)cc(N5CC(=O)N(C)C5=O)c4n3)ccc12 (racemic) [Example 21, rac-1-(6-cyclopropyl-2-(((4-methoxy-2-((1S*,2S*)-2-(4-methylpyrimidin-2-yl)cyclopropyl)quinolin-7-yl)amino)methyl)imidazo[1,2-a]pyridin-8-yl)-3-methylimidazolidine-2,4-dione]
≥ 9.00 | 1500 to 10000 | Cc1ccnc([C@H]2C[C@@H]2c2cc(-n3ccnc3)c3ccc(NCc4cn5cc(C6CC6)cc(N6CC(=O)N(C)C6=O)c5n4)cc3n2)n1 (racemic) [Example 25, rac-1-(2-(((4-(1H-imidazol-1-yl)-2-((1S*,2S*)-2-(4-methylpyrimidin-2-yl)cyclopropyl)quinolin-7-yl)amino)methyl)-6-cyclopropylimidazo[1,2-a]pyridin-8-yl)-3-methylimidazolidine-2,4-dione]
7.00 to 8.00 |  | O=c1[nH]c([C@H]2C[C@@H]2c2cccc(Cl)c2)nc2cc(NCc3cn4cc(C5CC5)ccc4n3)ncc12 [Example 2, 2-((1S,2S)-2-(3-chlorophenyl)cyclopropyl)-7-(((6-cyclopropylimidazo[1,2-a]pyridin-2-yl)methyl)amino)pyrido[4,3-d]pyrimidin-4 (3H)-one]
7.00 to 8.00 |  | COc1cc([C@H]2C[C@@H]2c2cccc(Cl)c2)nc2cc(NCc3cn4cc(C5CC5)cc(N5CC(=O)N(C)C5=O)c4n3)ncc12 [Example 18, 1-(2-(((2-((1S,2S)-2-(3-chlorophenyl)cyclopropyl)-4-methoxy-1,6-naphthyridin-7-yl)amino)methyl)-6-cyclopropylimidazo[1,2-a]pyridin-8-yl)-3-methylimidazolidine-2,4-dione]
< 5.19 |  | Clc1cccc([C@H]2C[C@@H]2c2nc3ncncc3n2Cc2cn3cc(C4CC4)ccc3n2)c1 [Example 44, 8-((1S,2S)-2-(3-chlorophenyl)cyclopropyl)-7-((6-cyclopropylimidazo[1,2-a]pyridin-2-yl)methyl)-7H-purine]
< 5.19 |  | Clc1cccc([C@H]2C[C@@H]2c2nc3ccc(NCc4cn5cc(C6CC6)ccc5n4)cc3[nH]2)c1 [Example 45, 2-((1S,2S)-2-(3-chlorophenyl)cyclopropyl)-N-((6-cyclopropylimidazo[1,2-a]pyridin-2-yl)methyl)-1H-benzo[d]imidazol-6-amine]
< 5.19 |  | Clc1cccc([C@H]2C[C@@H]2c2nc3cccc(NCc4cn5cc(C6CC6)ccc5n4)c3[nH]2)c1 [Example 46, 2-((1S, 2S)-2-(3-chlorophenyl)cyclopropyl)-N-((6-cyclopropylimidazo[1,2-a]pyridin-2-yl)methyl)-1H-benzo[d]imidazol-7-amine]
7.00 to 8.00 |  | O=c1nc([C@H]2C[C@@H]2c2cccc(Cl)c2)[nH]c2cc(NCc3cn4cc(C5CC5)ccc4n3)ccc12 [Example 50, 2-((1S,2S)-2-(3-chlorophenyl)cyclopropyl)-7-(((6-cyclopropylimidazo[1,2-a]pyridin-2-yl)methyl)amino)quinazolin-4 (1H)-one]
5.19 to 7.00 |  | Cc1ccnc([C@H]2C[C@@H]2C2=NS(=O)(=O)c3ccc(NCc4cn5cc(C6CC6)ccc5n4)cc3N2C)n1 [Example 94, 6-(((6-cyclopropylimidazo[1,2-a]pyridin-2-yl)methyl)amino)-4-methyl-3-((1S,2S)-2-(4-methylpyrimidin-2-yl)cyclopropyl)-4H-benzo[e][1,2,4]thiadiazine 1,1-dioxide]
